The results in this text go back to publication PMC9145393, “Design, Semisynthesis, and Estrogenic Activity of Lignan Derivatives from Natural Dibenzylbutyrolactones” (Pharmaceuticals, 2022).

Experiment [1] has as its system ER-dependent transcriptional activity in T47D-KBluc cells. Description: ERE-luciferase reporter in T47D-KBluc cells, agonist assessment (absence of E2). Type of experiment: cell-based, human. On the procedure:
Lactols (5) and (6) were tested as a mixture of the two epimers obtained.
Chemical screening was carried out by using T47D-KBluc cells, an ER+ BC cell line that is stably transfected with the pGL2.TATA.Inr.Luc.neo containing three ER-responsive elements (ERE). The T47D-KBluc cells were maintained in standard growth media as detailed above. Dosing media was further modified by reduction of DCC-FBS to 5%. […] Chemical screening was also carried out by using the triple negative BC cell line MDA-kb2 cells that stably expresses pMMTV.neo.luc gene, an AR- and GR-responsive reporter gene. […] The T47D-KBluc cells or the MDA-kb2 cells were seeded at 100,000 cells per well in 24-well plates (Nunclon, Sigma-Aldrich, Darmstadt, Germany ) and allowed to attach overnight. Then, the media was replaced with 1 mL/well of dosing media and test compounds incubated 24 h. Then, the cells were harvested in 100 µL passive lysis buffer (Promega, Madison, WI, USA) per well. The relative light units (RLUs), which correspond to luciferase activity from each sample, were measured by using Luciferase Assay Reagent (Promega) in a Clarity luminescence microplate reader (BIOTEK, Winooski, VT, USA). The RLUs from each sample were normalized by protein concentration and converted to fold induction with respect to vehicle-treated control. […] Then, the percent of efficacy (E) of each tested compound, as compared with Emax, was calculated. […] Data are expressed as mean ± SEM of triplicate independent experiments, where each treatment was assayed in triplicate. […] Duplicate plates were dosed in parallel to control the effects of compounds on cell viability. The protein concentration was measured in cell lysate using colorimetric assay reagent (BioRad, CA, USA).

The next experiment relates to T47D cells. Kind of experiment: MTT cell viability, E2-depleted T47D cells. It counts as cell-based, human. The conditions noted are these: 10 μM, 24 h, absence of E2. On the procedure: (§1) The effects of lignan derivatives were evaluated on human ER+ BC cells.
(§2) Cells were maintained in RPMI (Lonza, Basel, Switzerland) growth media, without phenol red, supplemented with 10% fetal bovine serum (FBS) (Lonza), 2 mM glutamine, 10 mM HEPES, 1 mM sodium pyruvate, 100 UI/mL penicillin and 100 μg/mL streptomycin. Cells were growth in a humidified incubator with 5% CO2 at 37 °C.
(§3) The cells were maintained in standard growth media as detailed above and seeded at exponential growth density (6000 cells per well) in 96-well plates (BD Falcon, France). The cells were then treated with vehicle or tests compounds (from 0.01 μM to 10 μM) for 24–72 h. The mitochondrial metabolization of the tetrazolium salt 3-(4,5-methyltiazol-2yl-)-2,5diphenyl-tetrazolium bromide] (MTT) (Applichen, Darmstadt, Germany) was used as an indicator of cell viability.
(§4) Figure 6 Effects of lignans on ER+ breast cancer cell viability. […] Then, the mitochondrial metabolization of MTT was used as an indicator of cell viability, as described in the Material and Methods. Data are expressed as mean ± SEM for at least three independent experiments, where each concentration is tested in triplicate. * p < 0.05, ** p < 0.01, and *** p < 0.001 versus VEH-treated cells.

For the next experiment, the system named is T47D and MCF7 cells. Description: MTT cell viability, E2 non-depleted T47D and MCF7 cells, 72 h. The conditions noted are these: 10 μM, maximum reduction. Type of experiment: cell-based, human. On the procedure:
as §1, §2, §3, §4

Another experiment deals with T1, rhERα-LBD (Homo sapiens, UniProt P03372).
T1 sequence (P03372 311-547 limits assumed): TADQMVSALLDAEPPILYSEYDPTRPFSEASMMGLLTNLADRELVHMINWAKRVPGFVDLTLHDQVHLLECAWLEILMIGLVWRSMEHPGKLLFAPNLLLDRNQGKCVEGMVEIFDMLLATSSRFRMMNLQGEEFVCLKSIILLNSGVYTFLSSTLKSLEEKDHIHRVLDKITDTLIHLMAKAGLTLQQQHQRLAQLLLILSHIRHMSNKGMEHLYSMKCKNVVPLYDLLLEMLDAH
Description: LanthaScreen TR-FRET competitive binding assay. The conditions noted are these: 10-point competition curves; Mean ± SE; read-out: IC50 (inhibition of Fluormone tracer binding to rhERα). On the procedure:
Next, the binding of lignan derivatives to the LBD of rhERα was analyzed by using time-resolved fluorescence resonance energy transfer (TR-FRET) competitive binding assay. […] The LanthaScreen^TM TR-FRET Nuclear Receptor (NR) binding assay (SelectScreen^TM Profiling Service, Life Technologies, Carlsbad, CA, USA) was used for screening of potential binding of lignan derivatives to human ERα [33]. Briefly, the kit uses the recombinant human ERα (rhERα) protein and a tight binding, selective fluorescent ligand, Fluormone^TM tracer. […] The rhERα protein and the tracer form rhERα/tracer complex, resulting in a high FP value. […] Dose-response competition curves were fitted by nonlinear regression analyses in the GraphPad software 8 (GraphPad Software, San Diego, CA, USA) to obtain IC50 values.
Data are expressed as mean ± SEM for from at least three independent experiments, where each concentration is tested in triplicate.
Background: TR-FRET usually uses a lanthanide donor and a delayed reading to cut background.

Experiment [2] has as its target T2, ERα from rat uterine cytosol (RUC) (Rattus norvegicus, UniProt P06211).
T2 construct: from tissue
T2 sequence (P06211 1-600): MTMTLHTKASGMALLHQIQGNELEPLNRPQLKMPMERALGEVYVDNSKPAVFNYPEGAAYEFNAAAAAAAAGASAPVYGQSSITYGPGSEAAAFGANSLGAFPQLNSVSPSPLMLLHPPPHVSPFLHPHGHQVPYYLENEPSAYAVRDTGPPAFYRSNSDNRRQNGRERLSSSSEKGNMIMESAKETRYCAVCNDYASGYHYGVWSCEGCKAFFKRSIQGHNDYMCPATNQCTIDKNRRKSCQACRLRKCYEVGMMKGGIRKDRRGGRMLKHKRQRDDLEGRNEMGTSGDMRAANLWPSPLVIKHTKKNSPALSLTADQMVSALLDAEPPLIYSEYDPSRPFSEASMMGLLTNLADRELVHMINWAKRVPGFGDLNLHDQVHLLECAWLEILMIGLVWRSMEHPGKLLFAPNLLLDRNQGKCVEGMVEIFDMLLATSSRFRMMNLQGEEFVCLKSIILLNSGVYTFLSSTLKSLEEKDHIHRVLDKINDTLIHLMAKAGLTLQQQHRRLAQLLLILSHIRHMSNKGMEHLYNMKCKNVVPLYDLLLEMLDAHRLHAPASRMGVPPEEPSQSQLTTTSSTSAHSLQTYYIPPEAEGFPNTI
Description: Rat uterine cytosol competitive radioligand ([3H]E2) binding assay.

Molecules are shown by their SMILES.

In general, IC50 refers to the concentration needed to halve the response being measured. Regarding `COc1ccc(C[C@@H](C)[C@H](C)Cc2ccc(O)c(O)c2)cc1OC` [Compound 14, 4-((2R,3R)-4-(3,4-Dimethoxyphenyl)-2,3-dimethylbutyl)benzene-1,2-diol], in experiment [1], the “E/Emax (%) VEH” value is on record as “weak estrogenic activity”. Also, in experiment [1] (Homo sapiens, read-out: E/Emax (%) VEH), the Emax came out at 21.7 ± 4.12%. For the same compound, the “reduction of cell viability” value with T47D cells was “reduced cell viability”; with T47D and MCF7 cells, 33.4%. Besides, the IC50 worked out at 160 ± 110 nM on rhERα-LBD and 3960 ± 980 nM in experiment [2].
